Experimental data reported in PubChem BioAssay (NCI).
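Following 48 hours of exposure in 96-well plates, responses at five concentrations were used to interpolate endpoints linearly. TGI: total growth inhibition.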

What was measured:
Assay in all cases: DTP human tumour cell line panel, 48 h
SW-620 colon = test system: SW-620 colon
OVCAR-8 ovarian = test system: OVCAR-8 ovarian
SR leukemia = test system: SR leukemia
PC-3 prostate = test system: PC-3 prostate
HCT-116 colon = test system: HCT-116 colon
HL-60(TB) leukemia = test system: HL-60(TB) leukemia
OVCAR-5 ovarian = test system: OVCAR-5 ovarian
MALME-3M melanoma = test system: MALME-3M melanoma
SF-539 CNS = test system: SF-539 CNS
ACHN renal = test system: ACHN renal

Compound | TGI (SW-620 colon) [µM] | TGI (OVCAR-8 ovarian) [µM] | TGI (SR leukemia) [µM] | TGI (PC-3 prostate) [µM] | TGI (HCT-116 colon) [µM] | TGI (HL-60(TB) leukemia) [µM] | TGI (OVCAR-5 ovarian) [µM] | TGI (MALME-3M melanoma) [µM] | TGI (SF-539 CNS) [µM] | TGI (ACHN renal) [µM]
O=C(OCc1ccccc1)N1CCNCCNCCN(C(=O)OCc2ccccc2)CCNCC1 | 32.8 | 32.8 | 34.2 | > 100 | 29.1 | 21.7 | > 100 | 36.5 | 32.8 | > 100
O=c1[nH]c(=O)n(C2OC(CO)C(O)C2O)cc1OCCCc1ccccc1 (stereo not given) | > 100 | > 100 | > 100 | > 100 | > 100 | > 100 | > 100 | > 100 | > 100 | > 100
O=c1[nH]nc(Cc2ccc(Cl)cc2)n1/N=C/c1ccc([N+](=O)[O-])o1 | > 21.6 | > 32.2 | 7.55 | > 75.1 | 3.2 | > 26.1 | > 54.6 | 3.31 | 9.39 | 11.4
O=C(O)c1cccc(NC(C(=O)c2ccccc2)c2ccccc2)c1 (stereo not given) | > 100 | > 100 | > 100 | > 100 | > 100 | > 100 | > 100 | > 100 | > 100 | > 100
Oc1ccc(-c2nc3ccccc3s2)cc1 | > 100 | > 100 | 87.7 | > 100 | 74.9 | > 100 | > 100 | > 100 | > 100 | > 100
O=C(Nc1nn[nH]n1)c1nc(-c2ccccc2)cc(=O)[nH]1 | > 100 | > 100 | > 100 | > 100 | > 100 | > 100 | > 100 | > 100 | > 100 | > 100
Cc1nc(-c2cc3ccccc3oc2=O)cs1 | > 100 | > 100 | > 100 | > 100 | > 100 | > 100 | > 100 | > 100 | > 100 | > 100
CCN(CC)C(=O)Cn1c2c(c3ccccc31)CCCC2 | > 100 | > 100 | > 100 | > 100 | > 100 | > 100 | > 100 | > 100 | > 100 | > 100
COc1cc2nc(-c3cccs3)nc(Nc3cccc(Cl)c3)c2cc1OC | > 100 | > 100 | > 100 | 56.8 | > 100 | > 100 | > 100 | > 100 | > 100 | > 100
O=[Se](O)O | > 100 | 8.83 | > 28.6 | 7.63 | 15.6 | > 100 | 4.82 | > 100 | 2.56 | 76.6
COc1ccccc1NC(=O)CC(=O)NN | > 100 | > 100 | > 100 | > 100 | > 100 | > 100 | > 100 | > 100 | > 100 | > 100
OC(NN=C1CCCC1)(C(F)(F)Cl)C(F)(F)Cl | > 10 | > 10 | > 10 | > 10 | > 10 | > 10 | > 10 | > 10 | > 10 | > 10
Cc1c2cccc-2ccc2c3ccccc3n(C(=O)c3ccc(Cl)cc3)c12 | > 100 | > 100 | > 100 | > 100 | > 100 | > 100 | > 100 | > 100 | > 100 | > 100
CC(C)CCOC(=O)NC(Nc1ccc(F)cc1)(C(F)(F)F)C(F)(F)F | > 100 | > 100 | 25.4 | > 100 | > 100 | > 100 | > 100 | > 100 | 46.1 | > 100
Cn1c(=O)sc2cc(C(=S)N3CCCCC3)ccc21 | > 100 | > 100 | > 100 | > 100 | > 100 | 42.7 | > 100 | 55.4 | > 100 | > 100
CC1(C)C=C(/C=N/Nc2ccccc2)C(C#N)=C(O)C1(C#N)C#N | > 100 | > 100 | > 100 | > 100 | > 100 | > 100 | > 100 | > 100 | > 100 | > 100
CC1(C)CC[C@]2(C(=O)O)CC[C@]3(C)[C@H](C(=O)C=C4[C@@]5(C)C=C(C#N)C(=O)C(C)(C)[C@@H]5CC[C@]43C)[C@@H]2C1 | 2.42 | 2.42 | 2.06 | 1.97 | 4.76 | 11.4 | 2.12 | 1.55 | 4.05 | 4.47
NCCSCCC(=O)O | > 100 | > 100 | > 83.9 | > 100 | > 100 | > 100 | > 100 | > 100 | > 100 | > 56.1
COc1cccc(C2c3cc4c(cc3OC(Nc3ccccc3)C2C)OCO4)c1O (stereo not given) | 36.8 | 35.7 | 7.25 | 36.9 | 36 | > 23.9 | > 93.8 | 35.3 | 18.1 | > 68.3
CC(=O)OC[C@H]1On2nnnc2[C@H](OC(C)=O)[C@@H](OC(C)=O)[C@@H]1OC(C)=O | > 100 | > 100 | > 100 | > 100 | > 100 | > 100 | > 100 | > 100 | > 100 | > 100
Cc1ccc(S(=O)(=O)NC(=O)C2=C3SCCN3C(=O)N(S(=O)(=O)c3ccc(C)cc3)C2c2ccccc2)cc1 (stereo not given) | > 100 | > 100 | > 100 | > 100 | > 100 | > 100 | > 100 | > 100 | 61.6 | > 100
CC(C)=CCC[C@@H](C)C1=C(O)C(Nc2ccccc2I)=C(C)C(=O)C1=O | > 75 | > 32.2 | 21.4 | > 51.8 | 34.8 | 4.39 | > 75 | 29.8 | 30 | 44
COc1cc(Oc2nc3cc(F)c(F)cc3nc2-c2ccccc2)cc(OC)c1OC | > 100 | > 100 | > 100 | > 100 | > 100 | > 100 | > 100 | 96.9 | 58.7 | > 100
O=C1NC(Cc2ccc(O)cc2)C(=O)NC1Cc1ccc(O)cc1 (stereo not given) | > 100 | > 100 | > 100 | > 100 | > 100 | > 100 | > 100 | > 100 | > 100 | > 100
N#Cc1c(N)nc2c3c1NC(=O)C(C(N)=O)C3c1ccccc1O2 (stereo not given) | > 100 | > 100 | > 100 | > 100 | > 100 | > 100 | > 100 | > 100 | > 100 | > 100
CN(C)CC1CCC(CN(C)C)C(=O)C1=O (stereo not given) | 3.33 | 9.08 | 5.08 | 31.1 | 7.55 | 7.17 | 30.9 | 3.6 | 12.6 | 11.9
CC(=O)OCC1OC(n2c(C)c(C)c(C)c(C#N)c2=S)C(OC(C)=O)C(OC(C)=O)C1OC(C)=O (stereo not given) | > 100 | > 100 | > 100 | > 100 | 67.7 | > 100 | > 100 | > 100 | > 100 | > 100
CC(C)Oc1cccc(N2C(Nc3ccccc3)=Nc3ccncc3S2(=O)=O)c1 | 57.4 | 43.4 | > 100 | 45.6 | > 100 | 6.01 | > 100 | 63.7 | 44.9 | 84.8
CCCCCCCCOc1ccc(/C=C/C2=[N+](CCO)CCO2)cc1 | 6.8 | 12.3 | 4.66 | 10.3 | 10.2 | 4.74 | 26.4 | 12.2 | 11 | 13
O=C(c1ccc(Cl)cc1)N1CCN=C1c1cc2ccccc2c2ccccc12 | 32.2 | 33.5 | 59 | 37.2 | 28.1 | 49.9 | 35.1 | 32.5 | 29.1 | 31.2
